The values below come from US12398154B2, “Azaquinazoline pan-KRas inhibitors” (Mirati Therapeutics, Inc., priority 2020, dated 2025).

One assay has as its target KRas G12D (Homo sapiens, UniProt P01116, G12D). The assay is described as follows: biochemical.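 Further: TR-FRET displacement binding assay on KRas, read after a one-hour incubation at room temperature, IC50 fitted from percent-of-control values.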
The target of another assay is KRas G12V (Homo sapiens, UniProt P01116, G12V). Kind of assay: biochemical.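 Further: KRas binding measured by TR-FRET displacement at room temperature, IC50 fitted from percent of control values.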
Sequence of KRas G12V (P01116 1-169 isoform P01116-2 G12V): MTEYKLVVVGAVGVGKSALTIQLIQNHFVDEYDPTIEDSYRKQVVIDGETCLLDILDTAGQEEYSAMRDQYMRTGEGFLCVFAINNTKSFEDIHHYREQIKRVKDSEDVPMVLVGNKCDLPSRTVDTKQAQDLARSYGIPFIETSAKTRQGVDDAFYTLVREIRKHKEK
The target in another assay is KRas G12R (Homo sapiens, UniProt P01116, G12R). Kind of assay: biochemical.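 Further: TR-FRET displacement assay of compound binding to KRas, read after one hour at room temperature, potency from a four-parameter fit of percent-of-control values.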
Sequence of KRas G12R (P01116 1-169 isoform P01116-2 G12R): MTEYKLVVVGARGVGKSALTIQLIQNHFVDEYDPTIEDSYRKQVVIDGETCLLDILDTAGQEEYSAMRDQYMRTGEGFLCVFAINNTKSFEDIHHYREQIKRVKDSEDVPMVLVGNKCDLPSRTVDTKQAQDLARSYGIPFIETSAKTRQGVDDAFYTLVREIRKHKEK
For another assay, the system named is pERK in MKN1 cells. The assay is described as follows: Inhibition of KRas phosphorylation of ERK (Cisbio HTRF pERK assay). The conditions noted are these: Homo sapiens, MKN-1, 3 h, read-out: Inhibition (HTRF IC50) of KRas-mediated Phosphorylation of ERK, MKN1.
In the next assay the test system is pERK in PSN1 cells. The assay is described as above. The conditions noted are these: Homo sapiens, PSN1, 3 h, read-out: Inhibition (HTRF IC50) of KRas-mediated Phosphorylation of ERK, PSN1.
The test system of a further assay is pERK in ASPC1 cells. The assay is described as above. The conditions noted are these: Homo sapiens, ASPC1, read-out: Inhibition (HTRF IC50) of KRas-mediated Phosphorylation of ERK, AsPC-1.
Another assay deals with pERK in H727 cells. The description is as above. The settings on record: Homo sapiens, NCI-H727, read-out: Inhibition (HTRF IC50) of KRas-mediated Phosphorylation of ERK, H727.
The next assay has as its system pERK in H460 cells. The assay is described as above. The conditions noted are these: Homo sapiens, NCI-H460, read-out: Inhibition (HTRF IC50) of KRas-mediated Phosphorylation of ERK, H460.
For a further assay, the system named is pERK in HCT116 cells. The assay is described as above. The settings on record: Homo sapiens, HCT-116, read-out: Inhibition (HTRF IC50) of KRas-mediated Phosphorylation of ERK, HCT116.
Another assay has as its system pERK in H358 cells. The description is as above. The conditions noted are these: Homo sapiens, NCI-H358, read-out: Inhibition (HTRF IC50) of KRas-mediated Phosphorylation of ERK, H358.

Bounds are passed on as bounds.

Sequence of KRas G12D (P01116 1-169 isoform P01116-2 G12D): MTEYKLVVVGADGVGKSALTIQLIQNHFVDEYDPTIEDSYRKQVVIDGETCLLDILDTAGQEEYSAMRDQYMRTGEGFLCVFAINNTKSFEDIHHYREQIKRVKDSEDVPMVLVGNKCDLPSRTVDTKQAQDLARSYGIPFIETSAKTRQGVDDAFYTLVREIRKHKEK

For the compound `O=S1(=O)NCC2(CCCN(c3nc(OC[C@@]45CCCN4C[C@H](F)C5)nc4c(F)c(-c5cc(O)cc6ccc(F)c(Br)c56)ncc34)C2)N1` (stereo partly drawn) [Example 411, 7-(7-(8-bromo-7-fluoro-3-hydroxynaphthalen-1-yl)-8-fluoro-2-(((2R,7aS)-2-fluorohexahydro-1H-pyrrolizin-7a-yl)methoxy)pyrido[4,3-d]pyrimidin-4-yl)-2-thia-1,3,7-triazaspiro[4.5]decane 2,2-dioxide], the IC50 is no more than 2 nM against KRas G12D; no more than 2 nM against KRas G12V; no more than 2 nM against KRas G12R; 40 nM in the assay on pERK in MKN1 cells; 0.146 µM in the assay on pERK in PSN1 cells; 63 nM with pERK in ASPC1 cells. For the same compound, the IC50 with pERK in H727 cells was 83 nM; with pERK in H460 cells it was 48 nM; with pERK in HCT116 cells, 92 nM; in the assay with pERK in H358 cells, 9 nM.
Regarding `CC1(O)COCCN(c2nc(OC[C@@]34CCCN3C[C@H](F)C4)nc3c(F)c(-c4cc(O)cc5ccc(F)c(Cl)c45)ncc23)C1` (stereo partly drawn) [Example 419, 4-(7-(8-chloro-7-fluoro-3-hydroxynaphthalen-1-yl)-8-fluoro-2-(((2R,7aS)-2-fluorohexahydro-1H-pyrrolizin-7a-yl)methoxy)pyrido[4,3-d]pyrimidin-4-yl)-6-methyl-1,4-oxazepan-6-ol], the IC50 against KRas G12D was found to be 3 nM; against KRas G12V it was 3 nM; against KRas G12R, 8 nM; in the assay on pERK in MKN1 cells it was 14 nM; in the assay with pERK in PSN1 cells, 3.48 µM; in the assay on pERK in ASPC1 cells it was 71 nM. The IC50 in the assay on pERK in H727 cells is 154 nM; with pERK in H460 cells it was 182 nM; in the assay on pERK in HCT116 cells, 319 nM; in the assay with pERK in H358 cells, 58 nM.
As for `CCc1cccc2cc(O)c(F)c(-c3ncc4c(N5CCC[C@@](C)(O)C5)nc(OC[C@@]56CCCN5C[C@H](F)C6)nc4c3F)c12` [Example 472, (3R)-1-(7-(8-ethyl-2-fluoro-3-hydroxynaphthalen-1-yl)-8-fluoro-2-(((2R,7aS)-2-fluorohexahydro-1H-pyrrolizin-7a-yl)methoxy)pyrido[4,3-d]pyrimidin-4-yl)-3-methylpiperidin-3-ol], the IC50 against KRas G12D is 6 nM; against KRas G12V, 16 nM; on KRas G12R, 18 nM; with pERK in MKN1 cells, 80 nM; with pERK in PSN1 cells it was 9.29 µM; in the assay on pERK in ASPC1 cells it was 89 nM. In addition, the IC50 worked out at 406 nM in the assay with pERK in H727 cells, 414 nM with pERK in H460 cells, 1070 nM with pERK in HCT116 cells and 231 nM in the assay with pERK in H358 cells.
For the compound `CCc1c(F)ccc2cc(O)cc(-c3ncc4c(N5CCCC6(CCSC6)C5)nc(OC[C@@]56CCCN5C[C@H](F)C6)nc4c3F)c12` (stereo partly drawn) [Example 476, 5-ethyl-6-fluoro-4-(8-fluoro-2-(((2R,7aS)-2-fluorotetrahydro-1H-pyrrolizin-7a(5H)-yl)methoxy)-4-(2-thia-7-azaspiro[4.5]decan-7-yl)pyrido[4,3-d]pyrimidin-7-yl)naphthalen-2-ol], the IC50 on KRas G12D was no more than 2 nM; at KRas G12V, no more than 2 nM; against KRas G12R it was 4 nM; in the assay with pERK in MKN1 cells, 14 nM; with pERK in PSN1 cells, 3.59 µM; with pERK in ASPC1 cells, 36 nM. Moreover, the IC50 was 148 nM in the assay with pERK in H727 cells, 99 nM in the assay on pERK in H460 cells, 275 nM in the assay with pERK in HCT116 cells and 35 nM in the assay with pERK in H358 cells.
